Measurements: patent US8088791B2, “Antibacterial agents” (Biots Scientific Management Pty Ltd, priority 2006, dated 2012)
In brackets after ≈: the same amount, converted by molar mass. Like-named read-outs stand apart in the source and are kept apart here.

Key:
[1] = system: Staphylococcus aureus ATCC29213; experiment: Minimum Inhibitory Concentration (MIC) testing, broth microdilution, Staphylococcus aureus; type: cell-based; settings: Staphylococcus aureus ATCC29213; read-out: Staphylococcus aureus MICs Activity
Method in brief: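 Broth microdilution per NCCLS M7-A5 in Mueller Hinton broth, with compound in 1.6% DMSO and inoculum at OD 0.09 diluted 1:100. Plates incubated 16–20 h at 37°C. MIC is the lowest concentration with no visible growth; scored A ≤8, B 16–64, C >64 μg/ml.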

Bacillus subtilis 168CA = experiment: Minimum Inhibitory Concentration (MIC) testing, broth microdilution, Bacillus subtilis; type: cell-based; settings: Bacillus subtilis 168CA; read-out: Bacillus subtilis MICs Activity
Method in brief: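 MICs were scored A (≦8 μg/ml), B (16–64 μg/ml) or C (>64 μg/ml), read as the lowest concentration preventing visible growth by eye and spectrophotometry. Plates incubated overnight (16–20 h) at 37 °C, inoculum OD 0.09 diluted 1:100 in 2× broth, per NCCLS guidelines.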

[2] = system: staphylococcal clinical isolates; experiment: Minimum Inhibitory Concentration (MIC) testing, broth microdilution, staphylococcal clinical isolates; type: cell-based; settings: for MIC: read-out: MIC Activity against clinical isolate
Protocol: (§1) Compounds of this invention were tested for antimicrobial activity by susceptibility testing in liquid media. MICs for compounds against each strain were determined by a broth microdilution method according to the National Committee for Clinical Laboratory Standards (NCCLS) guidelines. (NCCLS. 2000. Methods for dilution antimicrobial susceptibility tests for bacteria that grow aerobically—fifth edition. Approved standard M7-A5. NCCLS, Wayne, Pa.)
(§2) Briefly, test compounds are prepared in 100 μl of 1.6% DMSO solution in multiwell plates. Several bacterial colonies from a freshly streaked plate are transferred to an appropriate rich broth, such as Mueller Hinton. The cell suspension is adjusted to an optical density of 0.09 and further diluted 1:100 with warm 2× broth. This cell suspension is dispensed into the wells containing compound solution so that the final volume is 200 μl. The plates are incubated overnight (16-20 hours) at 37° C. and turbidity is scored by eye and quantified spectrophotometrically. The MIC is defined as the lowest concentration inhibiting visible growth.
Some of the Examples were also tested for activity against staphylococcal clinical isolates. […] Activities were again scored as ‘A’ if the MIC was ≦8 micrograms/ml, ‘B’ if the MIC was 16 to 64 micrograms/ml and ‘C’ if the MIC was greater than 64 micrograms/ml.

[3] = system: various bacterial species; experiment: Minimum Inhibitory Concentration (MIC) testing, broth microdilution, other bacterial species; type: cell-based
Protocol: as §1, §2
Some of the Examples were also tested for activity against other bacterial species. […] Activities were again scored as ‘A’ if the MIC was ≦8 micrograms/ml, ‘B’ if the MIC was 16 to 64 micrograms/ml and ‘C’ if the MIC was greater than 64 micrograms/ml.

NC(=O)c1c(F)ccc(OCc2ccc3sccc3c2)c1F [Example 201, 3-(1-Benzothiophen-5-ylmethoxy)-2,6-difluorobenzenecarboxamide]
melting point: 146 to 148 °C
MIC [1]: 16 to 64 µg/mL (≈ 50.1 to 200 µM)
MIC (Bacillus subtilis 168CA): < 8 µg/mL

CC1CC1COc1cccc(C(N)=O)c1 (stereo not shown) [Example 169, 3-[(2-Methylcyclopropyl)methoxy]benzenecarboxamide]
melting point: 119 to 121 °C
MIC [1]: > 64 µg/mL
MIC (Bacillus subtilis 168CA): > 64 µg/mL

NC(=O)c1cccc(OCCCCC/C=C\c2ccc(Cl)o2)c1 [Example 64, 3-{[(Z)-7-(5-Chloro-2-furyl)-6-heptenyl]oxy}benzenecarboxamide]
melting point: 53 to 56 °C
MIC [1]: < 8 µg/mL
MIC (Bacillus subtilis 168CA): < 8 µg/mL

NC(=O)c1c(F)ccc(OCc2ccc3ccccc3n2)c1F [Example 200, 2,6-Difluoro-3-(2-quinolinylmethoxy)benzenecarboxamide]
melting point: 216 to 218 °C
MIC [1]: 16 to 64 µg/mL (≈ 50.9 to 204 µM)
MIC (Bacillus subtilis 168CA): < 8 µg/mL

Cc1cncc(COc2cccc(C(N)=O)c2)c1 [Example 170, 3-[(5-Methyl-3-pyridinyl)methoxy]benzenecarboxamide]
melting point: 152 to 154 °C
MIC [1]: > 64 µg/mL
MIC (Bacillus subtilis 168CA): > 64 µg/mL

CCCCCCCCCOc1ccc(F)c(C(N)=O)c1Cl [Example 78, 2-Chloro-6-fluoro-3-(nonyloxy)benzenecarboxamide]
melting point: 64 to 66 °C
MIC [1]: < 8 µg/mL
MIC (Bacillus subtilis 168CA): < 8 µg/mL

NC(=O)c1cccc(OCCCCCCCc2ccsc2)c1 [Example 63, 3-{[7-(3-Thienyl)heptyl]oxy}benzenecarboxamide]
melting point: 97 to 100 °C
MIC (Bacillus subtilis 168CA): < 8 µg/mL

CCc1cccc2sc(COc3ccc(F)c(C(N)=O)c3F)nc12 [Example 223, 3-[(4-Ethyl-1,3-benzothiazol-2-yl)methoxy]-2,6-difluorobenzenecarboxamide]
melting point: 184 to 186 °C
MIC [1]: < 8 µg/mL
MIC (Bacillus subtilis 168CA): < 8 µg/mL

C#CCCCCCCCOc1cccc(C(N)=O)c1 [Example 65, 3-(8-Nonynyloxy)benzenecarboxamide]
melting point: 82 to 83 °C
MIC [1]: < 8 µg/mL
MIC (Bacillus subtilis 168CA): < 8 µg/mL

NC(=O)c1cccc(OCCCCC/C=C\c2ccsc2)c1 [Example 62, 3-{[(Z)-7-(3-Thienyl)-6-heptenyl]oxy}benzenecarboxamide]
melting point: 71 to 73 °C
MIC [1]: < 8 µg/mL
MIC (Bacillus subtilis 168CA): < 8 µg/mL

CCCCCCOC(=O)COc1ccc(F)c(C(N)=O)c1F [Example 89, Hexyl 2-[3-(aminocarbonyl)-2,4-difluorophenoxy]acetate]
melting point: 108 °C
MIC [1]: < 8 µg/mL
MIC (Bacillus subtilis 168CA): < 8 µg/mL

COc1ccc2nc(COc3ccc(F)c(C(N)=O)c3F)sc2c1 [Example 224, 2,6-Difluoro-3-[(6-methoxy-1,3-benzothiazol-2-yl)methoxy]benzenecarboxamide]
melting point: 190 to 192 °C
MIC [1]: > 64 µg/mL
MIC (Bacillus subtilis 168CA): 16 to 64 µg/mL (≈ 45.7 to 183 µM)

NC(=O)c1ccnc(OCc2nc3cc(Cl)ccc3s2)c1 [Example 222, 2-[(5-Chloro-1,3-benzothiazol-2-yl)methoxy]isonicotinamide]
melting point: 220 to 222 °C
MIC [1]: < 8 µg/mL
MIC (Bacillus subtilis 168CA): < 8 µg/mL

CCCC/C=C\CCCCOc1cccc(C(N)=O)c1 [Example 45, 3-[(Z)-5-Decenyloxy]benzenecarboxamide]
melting point: 98 to 100 °C
MIC [1]: < 8 µg/mL
MIC (Bacillus subtilis 168CA): < 8 µg/mL

COC(=O)C=CCOc1ccc(F)c(C(N)=O)c1F [Example 179, Methyl 4-[3-(aminocarbonyl)-2,4-difluorophenoxy]-2-butenoate]
melting point: 122 to 123 °C
MIC [1]: > 64 µg/mL
MIC (Bacillus subtilis 168CA): > 64 µg/mL

Cc1ccc(S(=O)(=O)OCCCCCCCCCOc2cccc(C(N)=O)c2)cc1 [Example 92, 9-[3-(Aminocarbonyl)phenoxy]nonyl 4-methylbenzenesulfonate]
melting point: 78 to 80 °C
MIC (Bacillus subtilis 168CA): < 8 µg/mL

C#CCCCCCCOC(=O)COc1ccc(F)c(C(N)=O)c1F [Example 90, 7-Octynyl 2-[3-(aminocarbonyl)-2,4-difluorophenoxy]acetate]
melting point: 130 to 132 °C
MIC [1]: < 8 µg/mL
MIC (Bacillus subtilis 168CA): < 8 µg/mL

NC(=O)c1c(F)ccc(OCc2nc3ccc(Cl)cc3s2)c1F [Example 227, 3-[(6-Chloro-1,3-benzothiazol-2-yl)methoxy]-2,6-difluorobenzenecarboxamide]
melting point: 190 to 191 °C
MIC [1]: < 8 µg/mL
MIC (Bacillus subtilis 168CA): < 8 µg/mL

CCCCCCOc1ccc(F)c(C(N)=O)c1Cl [Example 77, 2-Chloro-6-fluoro-3-(hexyloxy)benzenecarboxamide]
melting point: 66 to 68 °C
MIC [1]: 16 to 64 µg/mL (≈ 58.5 to 234 µM)
MIC (Bacillus subtilis 168CA): 16 to 64 µg/mL (≈ 58.5 to 234 µM)

NC(=O)c1c(F)ccc(OCc2nc3cc(C(F)(F)F)ccc3s2)c1F [Example 217, 2,6-Difluoro-3-[5-(trifluoromethyl)-1,3-benzothiazol-2-yl]methoxybenzenecarboxamide]
MIC [1]: < 8 µg/mL
MIC Activity against clinical isolate ([2]; S. aureus No. 753, Oxacillin S, Hospital): A (‘A’ if the MIC was ≦8 micrograms/ml)
MIC Activity against clinical isolate ([2]; S. aureus No. 757, Oxacillin R, Tet-R, MI-R, Hospital (tetM)): A (‘A’ if the MIC was ≦8 micrograms/ml)
MIC Activity against clinical isolate ([2]; S. aureus No. 1134, Oxacillin S, Hospital): A (‘A’ if the MIC was ≦8 micrograms/ml)
MIC Activity against clinical isolate ([2]; S. aureus No. 1135, Oxacillin R, Van-S, LZD-S, Hospital): A (‘A’ if the MIC was ≦8 micrograms/ml)
MIC Activity against clinical isolate ([2]; S. aureus No. 1651, Oxacillin R, Van-S, LZD-R, Hospital (G2576T, G)): A (‘A’ if the MIC was ≦8 micrograms/ml)
MIC Activity against clinical isolate ([2]; S. aureus No. 1652, Oxacillin R, Van-S, LZD-R, Hospital (T2500T, A)): A (‘A’ if the MIC was ≦8 micrograms/ml)
MIC Activity against clinical isolate ([2]; S. aureus No. 1662, Oxacillin S, Hospital): A (‘A’ if the MIC was ≦8 micrograms/ml)
MIC Activity against clinical isolate ([2]; S. aureus No. 1725, Oxacillin R, Van-S, LZD-R, Hospital (G2576T)): A (‘A’ if the MIC was ≦8 micrograms/ml)
MIC Activity against clinical isolate ([2]; S. aureus No. 1729, Oxacillin R, Tet-R, MI-R, Hospital): A (‘A’ if the MIC was ≦8 micrograms/ml)
MIC Activity against clinical isolate ([2]; S. aureus No. 2011, Oxacillin R, Tet-R, MI-S, Hospital (tetK)): A (‘A’ if the MIC was ≦8 micrograms/ml)
MIC Activity against clinical isolate ([2]; S. aureus No. 2012, Oxacillin R, Van-I, LZD-S, Hospital): A (‘A’ if the MIC was ≦8 micrograms/ml)
MIC Activity against clinical isolate ([2]; S. aureus No. 2018, Oxacillin R, Van-I, LZD-S, Hospital): A (‘A’ if the MIC was ≦8 micrograms/ml)
MIC Activity against clinical isolate ([2]; S. aureus No. 2142, Oxacillin R, CC-S, SXT-S, Community): A (‘A’ if the MIC was ≦8 micrograms/ml)
MIC Activity against clinical isolate ([2]; S. aureus No. 2143, Oxacillin R, Rif-R, Community): A (‘A’ if the MIC was ≦8 micrograms/ml)
MIC Activity against clinical isolate ([2]; S. aureus No. 2147, Oxacillin R, CC-S, SXT-S, Community): A (‘A’ if the MIC was ≦8 micrograms/ml)
MIC Activity against clinical isolate ([2]; S. aureus No. 2149, Oxacillin R, CC-R (iMLS), SXT-S, Community): A (‘A’ if the MIC was ≦8 micrograms/ml)
MIC Activity against clinical isolate ([2]; S. aureus No. 2150, Oxacillin R, CC-R, SXT-S, Community): A (‘A’ if the MIC was ≦8 micrograms/ml)
MIC Activity against clinical isolate ([2]; S. aureus No. 2158, Oxacillin R, CC-R, Doxy-I, Community): A (‘A’ if the MIC was ≦8 micrograms/ml)
MIC Activity against clinical isolate ([2]; S. aureus No. 2175, Oxacillin R, TMP-R, Community): A (‘A’ if the MIC was ≦8 micrograms/ml)
MIC Activity against clinical isolate ([2]; S. epidermidis No. 831, Oxacillin R): A (‘A’ if the MIC was ≦8 micrograms/ml)
MIC Activity against clinical isolate ([2]; S. epidermidis No. 1139, Oxacillin S): A (‘A’ if the MIC was ≦8 micrograms/ml)
MIC Activity against clinical isolate ([2]; S. epidermidis No. 1142, Oxacillin R): A (‘A’ if the MIC was ≦8 micrograms/ml)
MIC Activity against clinical isolate ([2]; S. epidermidis No. 1144, Oxacillin R): A (‘A’ if the MIC was ≦8 micrograms/ml)
MIC ([2]; Staphylococcus aureus, ATCC29213, S. aureus No. 0100, Oxacillin S, ATCC 29213): < 8 µg/mL
MIC ([2]; Staphylococcus aureus, S. aureus No. 1015, Oxacillin R, Van-S, LZD-S, Hospital): < 8 µg/mL
MIC ([2]; Staphylococcus epidermidis, S. epidermidis No. 835, Oxacillin S): < 8 µg/mL
MIC (Bacillus subtilis 168CA): < 8 µg/mL
MIC ([3]; Bacillus cereus, ATCC14579, read-out: MIC Activity Bacillus cereus ATCC 14579): < 8 µg/mL
MIC ([3]; Staphylococcus epidermidis, ATCC12228, read-out: MIC Activity Staphylococcus epidermidis ATCC 12228): < 8 µg/mL
MIC ([3]; Staphylococcus saprophyticus, ATCC15305, read-out: MIC Activity Staphylococcus saprophyticus ATCC 15305): < 8 µg/mL

Cc1cc(COc2ccc(F)c(C(N)=O)c2F)ccn1 [Example 198, 2,6-Difluoro-3-[(2-methyl-4-pyridinyl)methoxy]benzenecarboxamide]
melting point: 185 to 186 °C
MIC (Bacillus subtilis 168CA): 16 to 64 µg/mL (≈ 57.5 to 230 µM)
